Experimental data taken from US10321683B2, “Insecticidal, miticidal, nematicidal, molluscicidal, microbicidal, or bactericidal composition and method for controlling pest” (NISSAN CHEMICAL INDUSTRIES, LTD., priority 2014, dated 2019).

Columns and labels:
[1] = test system: third instar larvae of common cutworms; experiment: Efficacy test for common cutworm (cabbage leaf dip); assay type: in vivo, Common cutworm (Spodoptera litura); details: six days after the treatment
Description: Each of Compound (1) or Compound (2) and the compounds listed in Table 1 was formulated into a 10% emulsifiable concentrate (some compound was formulated into a 25% wettable powder). The formulations were diluted with water containing a spreading agent to prepare chemical solutions of given concentrations. Cabbage leaves were dipped in the chemical solutions for 10 seconds. The dipped cabbage leaves were transferred on filter papers placed in 7 cm petri dishes with one leaf per one petri dish, and the leaves were air dried. After the air drying was completed, the seven third instar larvae of common cutworms were placed in each petri dish and then the petri dishes were placed in an incubator at 25° C. Six days after the treatment, the numbers of dead larvae were checked, and the percentages of dead insects were calculated according to the calculating equation below. Note that the tests were conducted in duplicate. The percentage of dead insects (%)=the number of dead insects/the number of tested insects×100
(§1) To each concentration of chemical solutions, the synergistic effect was calculated from the percentage of dead insects by using Colby's method (Colby S. R. 1976, Weeds 15, 20-22). The calculation method was as follows. E=X+Y−XY/100
(§2) X: an observed value at an x concentration of Chemical A (the percentage of dead insects)
(§3) Y: an observed value at a y concentration of Chemical B (the percentage of dead insects)
(§4) E: the percentage of dead insects expected at the time of a mixed treatment with Chemical A and Chemical B.
(§5) If the observed value was larger than the expected value, there was a synergistic effect; if the expected value was larger than the observed value, there was an antagonist effect; and if the observed value and the expected value were same, there was an additive effect.

[2] = test system: fourth instar larvae of cotton bollworms; experiment: Efficacy test for cotton bollworm (cabbage leaf dip); assay type: in vivo, Cotton bollworm (Helicoverpa armigera); details: six days after the treatment
Description: Each of Compound (1) or Compound (2) and the compounds listed in Table 1 was formulated into a 10% emulsifiable concentrate (some compound was formulated into a 25% wettable powder). The formulations were diluted with water containing a spreading agent to prepare chemical solutions of given concentrations. Cabbage leaves were dipped in the chemical solutions for 10 seconds. The dipped cabbage leaves were transferred on filter papers placed in 7 cm petri dishes with one leaf per one petri dish, and the leaves were air dried. After the air drying was completed, the seven fourth instar larvae of cotton bollworms were placed in each petri dish, and then, the petri dishes were placed in an incubator at 25° C. Six days after the treatment, the numbers of dead larvae were checked, and the percentages of dead insects were calculated according to the calculating equation below. Note that the tests were conducted in duplicate. The percentage of dead insects (%)=the number of dead insects/the number of tested insects×100
as §1, §2, §3, §4, §5

[3] = test system: Western flower thrips larva; experiment: Efficacy test for Western flower thrips larva (leaf disk spray); assay type: in vivo, Western flower thrips (Frankliniella occidentalis); details: 1 day after spraying
Description: A styrol cup (having the diameter of the lid of 7.5 cm, and the height of 4 cm) was filled with tap water, and a lid having a hole in its center was placed on the styrol cup, and a leaf disk (having the diameter of 1.7 cm) made of a common bean leaf was placed on the lid. Suitable amounts of eggs of Western flower thrips were placed on the leaf disk, and were controlled in a thermostatic chamber for 24 hours to be hatched. Each of Compound (1) or Compound (2) and the compounds listed in Table 1 was formulated into a 10% emulsifiable concentrate. The formulations were diluted with water to prepare chemical solutions of given concentrations. Each of the test containers was treated with a spray solution as was uniformly sprayed by using a spraying apparatus (2.5 ml/cup). Examinations were conducted 1 day after spraying, and the percentages of dead insects were calculated according to the calculating equation below. Note that the tests were conducted in duplicate. The percentage of dead insects (%)=the number of dead insects/the number of tested insects×100
as §1, §2, §3, §4, §5

varroa mites = experiment: Efficacy test for varroa mite (coated screw bottle); assay type: in vivo; details: 100 μg/tube; 24 hours after placing
Description: The Compound (1) or Compound (2) was adjusted to a given concentration with acetone. After the adjustment, 300 μl of each of the prepared solutions was poured into a 20 ml screw bottle. The solvent was volatilized as the inner surface of the bottle was uniformly coated with the solution, and then the bottle was stored in a cool and dark place overnight. To obtain varroa mites, a blood comb was taken out from a beehive of honey bees on the day before placing of mites, and pupae having varroa mites were taken and placed in a petri dish. The petri dish was stored in an incubator at 34° C. overnight under the total darkness condition, and then only surviving varroa mites were collected. The collected varroa mites were placed in each of the screw bottles that were treated with the above-described chemicals, and the screw bottles were closed with caps. After three hours, the pupae of honey bees were placed in the screw bottles; the screw bottles were closed with caps again, and were stored in an incubator at 34° C. under the total darkness condition. The number of dead insects 24 hours after placing was checked, and the percentages of dead insects were calculated according to the calculating equation below. Note that the tests were conducted in quadruplicate of three in one plot. The percentage of dead insects (%)=the number of dead insects/the number of tested insects×100

[4] = test system: melon thrips female adult insects; experiment: Efficacy test for melon thrips female adult insect (leaf disk spray); assay type: in vivo, Melon thrips (Thrips palmi); details: 2 days after spraying
Description: (§6) Each of Compound (1) or Compound (2) and the compounds listed in Table 1 was formulated into a 10% emulsifiable concentrate. The formulations were diluted with water to prepare chemical solutions of given concentrations. A styrol cup (having the diameter of the lid of 7.5 cm, and the height of 4 cm) was filled with tap water, and a lid having a hole in its center was placed on the styrol cup, and a filter paper was placed on the lid to absorb tap water. An absorbent cotton (5 cm×5 cm) wetted with tap water was placed on the filter paper, and a leaf disk (having the diameter of 1.7 cm) made of a cucumber leaf was placed on the absorbent cotton. The ten melon thrips female adult insects were placed on the leaf disk. Each of the test containers was treated with a spray solution as was uniformly sprayed by using a spraying apparatus (2.5 ml/cup). Examinations were conducted 2 days after spraying, and the percentages of dead insects were calculated according to the calculating equation below. Note that the tests were conducted in duplicate. The percentage of dead insects (%)=the number of dead insects/the number of tested insects×100
To each concentration of chemical solutions, the synergistic effect was calculated from the percentage of dead insects by using Colby's method (Colby S. R. 1976, Weeds 15, 20-22). The calculation method was as follows. E=X+Y−XY/100 […]

[5] = test system: sweetpotato whitefly adult insects; experiment: Efficacy test for sweetpotato whitefly biotype B (leaf disk spray); assay type: in vivo, Sweetpotato whitefly (Bemisia tabaci) biotype B; details: 5 days after spraying
Description: as §6, with “of 3” for “of 1.7”, “a common bean” for “a cucumber”, “cotton.” for “cotton. The ten melon thrips female adult insects were placed on the leaf disk.”, “ml/cup). The 20 sweetpotato whitefly adult insects were placed on the leaf disk, and a mesh lid was placed over the container to prevent escape of the insects.” for “ml/cup).”, “conducted 5” for “conducted 2”, “insects×100 To each concentration of chemical solutions, the synergistic effect was calculated from the percentage of dead insects by using Colby's method (Colby S. R. […], Weeds 15, 20-22). […]” for “insects×100”

**Q.** Which “Percentage of Dead Insect (%) Observed Value” ([1]; Table 8, 1.7 ppm) does the source give for “tetraniliprole [Compound ey, reference compound]” here?
**A.** 64.3%

**Q.** `CNC(=O)c1cc(C#N)cc(C)c1NC(=O)c1cc(Br)nn1-c1ncccc1Cl` [Compound al, cyantraniliprole, reference compound] was tested. Which “Percentage of Dead Insect (%) Observed Value” ([2]; 0.25 ppm) did it give?
**A.** 42.9%

**Q.** For `CC(NC(=O)c1cc(Cl)cc(Br)c1NC(=O)c1cc(Br)nn1-c1ncccc1Cl)C1CC1` (stereo not drawn) [Compound am, cyclaniliprole, reference compound], which “Percentage of Dead Insect (%) Observed Value” ([1]; Table 7, 0.17 ppm) is on record?
**A.** 7.7%

**Q.** With `O=C(NC(=O)c1c(F)cccc1F)Nc1ccc(Oc2ccc(C(F)(F)F)cc2Cl)cc1F` [Compound ce, flufenoxuron] as the compound, how does the “Percentage of Dead Insect (%) Observed Value” ([3]; 20 ppm) read?
**A.** 27.2%

**Q.** `N#Cc1ccc(CC(=NNC(=O)Nc2ccc(OC(F)(F)F)cc2)c2cccc(C(F)(F)F)c2)cc1` (mixture of isomers) [Compound dc, metaflumizone, reference compound] was tested. Which “Percentage of Dead Insect (%) Observed Value” ([1]; Table 6, 1.7 ppm) did it give?
**A.** 53.8%

**Q.** How did the “Percentage of Dead Insect (%) Observed Value” ([3]; 20 ppm) turn out when `Cc1c(COC(=O)[C@@H]2[C@H](/C=C(\Cl)C(F)(F)F)C2(C)C)cccc1-c1ccccc1` (racemic) [Compound q, bifenthrin] was run?
**A.** 8.5%

**Q.** Which results are given for `CO/N=C\NC(=O)c1ccc(C2=NOC(c3cc(Cl)cc(Cl)c3)(C(F)(F)F)C2)cc1C` (stereo not drawn) [Compound (2), (Z)-4-[5-(3,5-dichlorophenyl)-5-trifluoromethyl-4,5-dihydroisoxazole-3-yl]-N-(methoxyiminomethyl)-2-methylbenzamide]?
**A.** Percentage of Dead Insect (%) (varroa mites): 100%; Percentage of Dead Insect (%) Observed Value ([3]; 1 ppm): 29.5%; Percentage of Dead Insect (%) Observed Value ([1]; 0.017 ppm): 35.7%; Percentage of Dead Insect (%) Observed Value ([1]; Table 4, 0.025 ppm): 35.7%; Percentage of Dead Insect (%) Observed Value ([1]; Table 5, 0.025 ppm): 35.7%; Percentage of Dead Insect (%) Observed Value ([1]; Table 6, 0.025 ppm): 35.7%; Percentage of Dead Insect (%) Observed Value ([1]; Table 7, 0.005 ppm): 14.3%; Percentage of Dead Insect (%) Observed Value ([1]; Table 8, 0.005 ppm): 14.3%; Percentage of Dead Insect (%) Observed Value ([4]; 5 ppm): 42.1%; Percentage of Dead Insect (%) Observed Value ([2]; 0.125 ppm): 35.7%; Percentage of Dead Insect (%) Observed Value ([5]; 5 ppm): 36.6%

**Q.** “spinosad [Compound em, reference compound]” was tested. Which “Percentage of Dead Insect (%) Observed Value” ([1]; Table 4, 32 ppm) did it give?
**A.** 60.0%

**Q.** With `CCc1nc2cc(C)c(Oc3ccc(OC(F)(F)F)cc3)cc2c(OC(=O)OC)c1C` [Compound bx, flometoquin, reference compound] as the compound, how does the “Percentage of Dead Insect (%) Observed Value” ([4]; 2.5 ppm) read?
**A.** 52.6%

**Q.** For `O=C1C=C(N(Cc2ccc(Cl)nc2)CC(F)F)CO1` [Compound ci, flupyradifurone, reference compound], which “Percentage of Dead Insect (%) Observed Value” ([5]; 25 ppm) is on record?
**A.** 40.5%

**Q.** For `CC1(C)[C@H](C(=O)O[C@H](C#N)c2cccc(Oc3ccccc3)c2)[C@@H]1/C=C(\Cl)C(F)(F)F` [Compound ar, gamma-cyhalothrin, reference compound], which “Percentage of Dead Insect (%) Observed Value” ([1]; 0.5 ppm) is on record?
**A.** 35.7%

**Q.** Which results are given for `Cc1cc(C2=NOC(c3cc(Cl)cc(Cl)c3)(C(F)(F)F)C2)ccc1C(=O)NCC(=O)NCC(F)(F)F` (stereo not drawn) [Compound (1), 4-[5-(3,5-dichlorophenyl)-4,5-dihydro-5-(trifluoromethyl)isoxazole-3-yl]-2-methyl-N-[2-oxo-2-[(2,2,2-trifluoroethyl)amino]ethyl]benzamide]?
**A.** Percentage of Dead Insect (%) (varroa mites): 100%; Percentage of Dead Insect (%) Observed Value ([1]; 0.017 ppm): 28.6%; Percentage of Dead Insect (%) Observed Value ([2]; 0.125 ppm): 28.6%

**Q.** `Cc1cc(C(F)(C(F)(F)F)C(F)(F)F)ccc1NC(=O)c1cccc(I)c1C(=O)NC(C)(C)CS(C)(=O)=O` [Compound ca, flubendiamide, reference compound] was tested. Which “Percentage of Dead Insect (%) Observed Value” ([2]; 0.025 ppm) did it give?
**A.** 35.7%

**Q.** For `CNC(=O)c1cc(Cl)cc(C)c1NC(=O)c1cc(Br)nn1-c1ncccc1Cl` [Compound aa, chlorantraniliprole, reference compound], which “Percentage of Dead Insect (%) Observed Value” ([1]; 0.083 ppm) is on record?
**A.** 21.4%

**Q.** “spinetoram [Compound el, reference compound]” was tested. Which “Percentage of Dead Insect (%) Observed Value” ([1]; Table 5, 4.4 ppm) did it give?
**A.** 78.6%
